The values that follow come from patent US10766893B2 (priority 2017, dated 2020).

Common to all, as to experiment: biochemical
Assay type in all cases: biochemical
Conditions in all cases: 15 nM tritium labelled cAMP, 1 hr at room temperature

One assay concerns the target PDE1A (Homo sapiens (Human), UniProt P54750). From the text: (§1) Table 1 lists the IC50 value for inhibition of PDE1 by the compounds of the invention. […] PDE1 assays are described in the Experimental Section.
The target in a further assay is PDE1B (Homo sapiens (Human), UniProt Q01064).
PDE1B, sequence (Q01064 whole entry): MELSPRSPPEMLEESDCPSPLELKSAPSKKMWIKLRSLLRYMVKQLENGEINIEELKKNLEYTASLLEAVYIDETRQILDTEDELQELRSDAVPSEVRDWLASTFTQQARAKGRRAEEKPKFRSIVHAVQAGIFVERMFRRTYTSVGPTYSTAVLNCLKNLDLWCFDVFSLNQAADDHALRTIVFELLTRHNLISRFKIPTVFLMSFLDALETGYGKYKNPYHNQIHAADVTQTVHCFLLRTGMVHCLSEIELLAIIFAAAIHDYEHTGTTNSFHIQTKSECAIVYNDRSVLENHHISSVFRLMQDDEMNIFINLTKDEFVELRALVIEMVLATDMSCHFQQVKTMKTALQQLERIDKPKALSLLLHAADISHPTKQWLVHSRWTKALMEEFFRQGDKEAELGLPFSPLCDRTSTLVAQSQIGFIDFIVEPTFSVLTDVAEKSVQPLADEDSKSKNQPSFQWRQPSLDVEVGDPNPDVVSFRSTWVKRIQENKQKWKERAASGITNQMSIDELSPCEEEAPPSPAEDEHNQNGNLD
From the text: as §1

A further assay deals with PDE1C (Homo sapiens (Human), UniProt Q14123).
PDE1C, sequence (Q14123 whole entry): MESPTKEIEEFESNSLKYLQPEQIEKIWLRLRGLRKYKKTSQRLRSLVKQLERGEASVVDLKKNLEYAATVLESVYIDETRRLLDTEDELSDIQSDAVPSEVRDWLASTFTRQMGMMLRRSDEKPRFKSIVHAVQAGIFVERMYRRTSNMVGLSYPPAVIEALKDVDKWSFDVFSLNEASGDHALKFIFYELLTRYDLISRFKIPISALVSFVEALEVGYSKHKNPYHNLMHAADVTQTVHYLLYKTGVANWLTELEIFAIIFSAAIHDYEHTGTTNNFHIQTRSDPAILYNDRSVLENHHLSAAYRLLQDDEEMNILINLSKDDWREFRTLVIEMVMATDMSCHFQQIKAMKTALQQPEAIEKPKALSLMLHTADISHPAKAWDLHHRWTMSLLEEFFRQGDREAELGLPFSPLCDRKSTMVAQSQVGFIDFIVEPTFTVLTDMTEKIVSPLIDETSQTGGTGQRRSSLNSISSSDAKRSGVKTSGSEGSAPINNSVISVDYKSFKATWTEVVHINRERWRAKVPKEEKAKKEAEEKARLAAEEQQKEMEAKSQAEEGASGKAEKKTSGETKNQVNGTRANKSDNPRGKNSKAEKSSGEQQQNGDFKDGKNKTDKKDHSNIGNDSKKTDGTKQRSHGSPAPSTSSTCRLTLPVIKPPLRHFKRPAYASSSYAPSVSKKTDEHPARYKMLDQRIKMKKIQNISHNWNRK
From the text: as §1

PDE1A, sequence (P54750 whole entry): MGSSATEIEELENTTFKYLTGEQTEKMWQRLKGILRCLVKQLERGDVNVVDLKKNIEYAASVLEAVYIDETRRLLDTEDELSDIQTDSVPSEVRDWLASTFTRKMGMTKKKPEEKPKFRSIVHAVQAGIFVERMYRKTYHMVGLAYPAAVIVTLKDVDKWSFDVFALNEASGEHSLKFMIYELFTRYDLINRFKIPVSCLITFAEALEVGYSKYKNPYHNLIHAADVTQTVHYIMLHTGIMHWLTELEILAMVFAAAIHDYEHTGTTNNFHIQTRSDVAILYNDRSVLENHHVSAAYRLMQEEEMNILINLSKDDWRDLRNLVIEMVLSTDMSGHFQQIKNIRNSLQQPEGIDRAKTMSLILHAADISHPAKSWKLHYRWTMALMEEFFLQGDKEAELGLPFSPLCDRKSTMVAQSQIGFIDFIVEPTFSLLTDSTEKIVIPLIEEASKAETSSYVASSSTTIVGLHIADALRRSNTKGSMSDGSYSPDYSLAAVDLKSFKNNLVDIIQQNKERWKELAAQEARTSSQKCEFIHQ

Regarding `CCOc1cnccc1-c1cc(NCc2cccnc2OC)c2c(n1)c(C)nn2C(C)C` [Example 30b, 5-(3-ethoxy-4-pyridyl)-1-isopropyl-N-[(2-methoxy-3-pyridyl)methyl]-3-methyl-pyrazolo[4,3-b]pyridin-7-amine], the values for the IC50 at PDE1A, on PDE1B and against PDE1C were 27 nM, 2.7 nM and 65 nM, respectively.

Take `CCCOc1cnccc1-c1cc(NCc2cnn(C)c2)c2c(n1)c(C)nn2C(C)C` [Example 31b, 1-isopropyl-3-methyl-N-[(1-methylpyrazol-4-yl)methyl]-5-(3-propoxy-4-pyridyl)pyrazolo[4,3-b]pyridin-7-amine]: the IC50 came out at 4.6 nM at PDE1A, 0.38 nM against PDE1B and 18 nM at PDE1C.

As to `CCOc1cnccc1-c1cc(NCc2nnc(C)o2)c2c(n1)c(C)nn2C(C)C` [Example 34b, 5-(3-ethoxy-4-pyridyl)-1-isopropyl-3-methyl-N-[(5-methyl-1,3,4-oxadiazol-2-yl)methyl]pyrazolo[4,3-b]pyridin-7-amine], the values for the half-maximal inhibitory concentration (IC50) against PDE1A, against PDE1B and at PDE1C were 49 nM, 7 nM and 130 nM, respectively.

With `Cc1nc2cccc(-c3cc(NCc4cnn(C)c4)c4c(n3)c(C)nn4C(C)C)c2o1` [Example 36b, 1-isopropyl-3-methyl-5-(2-methyl-1,3-benzoxazol-7-yl)-N-[(1-methylpyrazol-4-yl)methyl]pyrazolo[4,3-b]pyridin-7-amine], the 50% inhibitory concentration (IC50) was determined as 14 nM at PDE1A, 2.4 nM on PDE1B and 28 nM against PDE1C.

Consider `Cc1nn(C(C)C)c2c(NCc3cnn(C)c3)cc(-c3cccc4ncoc34)nc12` [Example 37b, 5-(1,3-benzoxazol-7-yl)-1-isopropyl-3-methyl-N-[(1-methylpyrazol-4-yl)methyl]pyrazolo[4,3-b]pyridin-7-amine], for which the IC50 worked out at 16 nM against PDE1A, 2.4 nM against PDE1B and 14 nM against PDE1C.

With `Cc1nn(C(C)C)c2c(NCc3cnn(C)c3)cc(-c3cccc4cc[nH]c34)nc12` [Example 38b, 5-(1H-indol-7-yl)-1-isopropyl-3-methyl-N-[(1-methylpyrazol-4-yl)methyl]pyrazolo[4,3-b]pyridin-7-amine], the IC50 against PDE1A came out at 590 nM; on PDE1B, 100 nM; against PDE1C, 350 nM.

`Cc1nn(C(C)C)c2c(NCc3cnn(C)c3)cc(-c3cccc4cn[nH]c34)nc12` [Example 39b, 5-(1H-indazol-7-yl)-1-isopropyl-3-methyl-N-[(1-methylpyrazol-4-yl)methyl]pyrazolo[4,3-b]pyridin-7-amine]: the IC50 against PDE1A is 140 nM; against PDE1B, 24 nM; at PDE1C it was 300 nM.

The IC50 is the midpoint of a concentration-inhibition curve.
